According to patent US20140228407A1, “TETRA-PYRIDINE COMPOUNDS AND COMPOSITION FOR PROTECTING CELLS, TISSUES AND ORGANS AGAINST ISCHEMIA-REPERFUSION INJURY” (YISSUM RESEARCH DEVELOPMENT COMPANY OF THE HEBREW …, priority 2011, published 2014):

Tests used:
CD rat = test: Toxicity evaluation in rat after myocardial ischemia (Phase A: mortality, clinical observations, body weights); format: in vivo; settings: dose levels up to 2 mg/kg following myocardial ischemia
Protocol: This study was conducted to evaluate the effects of the Compound #6 on cardiac function, infarct size, and Troponin I levels in a model of ischemia/reperfusion in the CD® (CR1CD® (SD)) rat. Phase A was conducted for toxicity evaluation purposes. In Phase B (the efficacy phase), two treatment groups of eight male rats were administered Compound #6 at dose levels of 0.2 and 2 mg/kg via intravenous infusion following myocardial infarction. […]
The animals were placed on mechanical ventilation and not intubated. […] In Phase A, the animals were recovered from anesthesia and evaluated for 4 days. […]
In Phase A, body weights for all animals were measured and recorded at receipt, prior to randomization, just prior to surgery, and daily for 3 days during the study. In Phase B, body weights for all animals were measured and recorded at receipt, prior to each randomization as applicable, and just prior to surgery, except that a body weight was not recorded prior to randomization for the animals received in the second shipment. In both phases, the body weights recorded at receipt and prior to randomization are not reported but are maintained in the study file.

PC12 cells = test: PC12 ischemic model (oxygen and glucose deprivation), cell death by LDH measurement; format: cell-based; settings: for protection percentile: protection from cell death, FIG. 6B: identical for both compounds
Protocol: PC12 cells were grown in 25 cm^2 flasks in Dulbecco's modified Eagles Medium (DMEM), supplemented with 7% fetal bovine serum (FBS), 7% horse serum, […] penicillin and 100 μg/ml streptomycin. Cells were grown in humidified incubator 5% CO2, 95% air at 37° C. The medium was replaced every 2 days, and upon 70% confluence, the cells were counted and seeded for the ischemia experiments.
Approximately 1×10^6 PC12 cells/well were cultured and exposed to ischemia (oxygen and glucose deprivation=OGD) for 4.5 hr. Prior to the exposure, the growth medium was replaced with glucose-free DMEM (1 ml/well). Ischemia was performed in a closed chamber by replacement of air with 95% nitrogen/5% CO2.
Ischemic stress injury was characterized by lactate dehydrogenase (LDH) released from cells. After 4.5 hr of ischemia, a 50 μl sample of supernatant was taken from each well for LDH measurement. At the end of the ischemic insult (after 4.5 hr), glucose (at final concentration of 4.5 g/L by adding 10 μl from stock solution of 450 mg/ml per well (1 ml)) was added to the plates which underwent ischemia. The plates were then transferred to a humidified incubator and exposed to 95% air/5% CO2 at 37° C. for additional 18 hr of reoxygenation. DMEM supernatant samples (25 μl/well) were collected from each well for LDH measurements. The samples were centrifuged at 3500 rpm for 5 min, and 5 μl aliquots of supernatant was taken for LDH measurement.
For every experiment, a duplicate plate was prepared as a control study under normoxia. Cells were kept in a humidified incubator (5% CO2 and 95% air at 37° C.) in cell culture complete medium at a volume of 1 ml for 18 hr, and the same compounds were added with the same concentrations. Supernatant was collected for LDH measurement as indicated in the LDH activity measurement section below. Afterwards (at the end of the reoxygenation phase), the plates were frozen (at −70° C. for 30 min) and thawed once. 25 μl/well sample was collected and the samples were centrifuged at 3500 rpm for 5 min and then taken for LDH measurement (total).
LDH activity was determined using LDH-L kit (Pointe Scientific Inc., Michigan, USA) in the PC12 cell medium. Medium samples (5 μl) were collected at the end of the ischemic insult (after 4.5 hr) and after the reoxygenation period. In parallel, samples from the plates exposed to normoxia were collected. LDH enzymatic activity was measured in a spectrophotometer at a wavelength of 340 nm at 37° C. Data analysis was performed as follows: [OD (cycle 3)−OD (cycle 1)experiment]−[OD(3)−OD(1) control])/[OD(3)−OD(1) total]×100, and presented as percentage of total cell death.
One day before the experiment, 12-well plates were coated with 200 μg/ml type I rat tail collagen (BD Biosciences, Bedford, Mass.) and were further sterilized under UV. 1×10^6 PC12 undifferentiated cells/well were seeded on the plates and allowed to adhere overnight under regular conditions (DMEM medium high glucose 4.5 mg/ml, 5% CO2 and 95% air at 37° C.). Each experiment included 4 plates, two for normoxia and two for ischemia which underwent the same following treatment for all 4 plates.
A half hour before the onset of the ischemic insult, the antioxidant Tempol (4-hydroxy-2,2,6,6-tetramethylpiperidine-1-oxyl) (Sigma, St. Louis, Mo.) at a concentration of 0.5 mM (10 μl/well taken from a 8.6 mg/ml stock solution) or TPEN at a concentration of 3 μM and 10 μM were added to the plates. Before the experiments, the medium was replaced with DMEM glucose free medium at 1 ml volume/well. TPEN or 10 μl Tempol were again added to the appropriate wells and was maintained throughout all experiments.
Thereafter, the plates were introduced into a device inducing ischemia atmosphere with 95% nitrogen and 5% CO2 for 4.5 hr. Oxygen level was monitored online by a digital oxygen monitor showing up to 1%. At the end of OGD, 25 μl from each well was collected into 0.5 ml tubes for the LDH assay. […]

Cc1ccc(CN(CCN(Cc2ccc(C)cn2)Cc2ccc(C)cn2)Cc2ccc(C)cn2)nc1 [Compound #6]
toxicity in the rat (overall conclusion) (CD rat): not associated with any toxicity | effectiveness relative to TPEN on PC12 cell death, FIG. 5 (PC12 cells; 1 μM vs 1 μM TPEN): 2 fold | protection of PC12 cells against ischemia insult-induced cell death vs TPEN at same concentration, FIG. 4 (PC12 cells; 1 μM vs 1 μM TPEN): significantly more potent then TPEN | protection of PC12 cells against ischemia insult-induced cell death vs 3 μM TPEN, FIG. 4 (PC12 cells; 1 μM vs 3 μM TPEN): more effective than 3 μM TPEN | effectiveness relative to the un-protected control group of cells, FIG. 5 (PC12 cells; 3 μM): 4 fold | effectiveness relative to TPEN on PC12 cell death, FIG. 5 (PC12 cells; 3 μM vs TPEN at the same concentration): 3 fold | protective effect on PC12 cell death, Compound #6 vs. Compound #4, FIG. 3 (PC12 cells; at similar concentrations (300 nM, 1 μM, 3 μM)): more effective than Compound #4 | protection percentile: protection from cell death, FIG. 6B (PC12 cells; first of two selected concentrations (not given)): 29% | protection percentile: protection from cell death, FIG. 6B (PC12 cells; second of two selected concentrations (not given)): 63% | dose response function, attenuating cell death following ischemia-reperfusion, vs TPEN, FIG. 6A (PC12 cells; selected concentrations): superior to the latter
